{
  "source": "PubChem BioAssay AID1645864",
  "about": "(Buhrlage Lab, Dana-Farber Cancer Institute and Novartis …, 2021)",
  "note": "Calls of active or inactive are those of the source.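 Rule for the calls: active = maximal inhibition of USP17 at or above 30% in the confirmation dose-response, a value not among the printed readouts; inactive = the rest.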",
  "data": [
    {"target": "Ubiquitin carboxyl-terminal hydrolase 17-like protein 5 (Homo sapiens) (UniProt A8MUK1)", "sequence (A8MUK1 whole entry, looked up)": "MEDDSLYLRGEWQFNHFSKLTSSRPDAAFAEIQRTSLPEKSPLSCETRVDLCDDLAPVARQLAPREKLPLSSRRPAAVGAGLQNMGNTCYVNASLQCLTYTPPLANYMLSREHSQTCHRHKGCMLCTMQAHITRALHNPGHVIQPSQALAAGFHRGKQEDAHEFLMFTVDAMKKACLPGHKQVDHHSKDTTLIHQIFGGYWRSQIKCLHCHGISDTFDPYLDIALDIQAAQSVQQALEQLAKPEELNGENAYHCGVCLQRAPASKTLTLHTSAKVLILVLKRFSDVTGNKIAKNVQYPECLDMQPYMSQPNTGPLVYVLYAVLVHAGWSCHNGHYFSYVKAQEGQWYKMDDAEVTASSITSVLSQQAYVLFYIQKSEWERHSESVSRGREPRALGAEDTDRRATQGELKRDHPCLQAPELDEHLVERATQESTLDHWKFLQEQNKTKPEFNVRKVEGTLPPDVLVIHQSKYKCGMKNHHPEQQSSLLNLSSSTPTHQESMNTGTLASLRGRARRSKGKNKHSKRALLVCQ", "test": "ubiquitin-specific protease 17 DUB inhibitors, concentration-effect assay, cell-free, verification of initial screening actives (AID 1645864)", "settings": "purified USP17, ubiquitin-rhodamine cleavage fluorescence, 3 h", "values": [
      {"smiles": "O=C(CN1C(=O)COc2ccc(Cl)cc21)Nc1cccc2ncccc12", "IC50": "> 50 µM (inactive)"},
      {"smiles": "COc1cc2c(cc1OC)-c1cc(Nc3ccc(Br)cc3)nc(=O)n1CC2", "IC50": "1.65 µM"},
      {"smiles": "COc1ccc(CC(=O)Nc2ccc3nc(N4CCOCC4)cc(C)c3c2)cc1", "IC50": "24.2 µM"},
      {"smiles": "COCCCn1c(C(=O)Nc2ccccc2OC)cc2c(=O)n3ccccc3nc21", "IC50": "12.4 µM"},
      {"smiles": "COc1ccc2ncc3c(-c4ccc(C)cc4)nn(-c4ccc(F)cc4)c3c2c1", "IC50": "3.57 µM"},
      {"smiles": "COc1ccc(-c2nc(Cn3nnc(C(=O)Nc4ccc(C)c(C)c4)c3N)c(C)o2)cc1", "IC50": "2.24 µM"},
      {"smiles": "O=C(Cc1cc(-c2ccc(F)cc2)on1)NCc1ccccc1", "IC50": "15.9 µM"},
      {"smiles": "COc1cccc2c1C(=O)c1ccc3c(c1C2=O)C(=O)CC(C)(O)C3", "note": "(centres undefined)", "IC50": "36.4 µM"},
      {"smiles": "Cc1nc(-c2ccccc2F)sc1C(=O)Nc1cccnc1", "IC50": "35.6 µM"},
      {"smiles": "CC(C)c1cc2c(c(O)c1O)[C@@]13CCCC(C)(C)[C@@H]1C[C@@H]2OC3=O", "IC50": "19.5 µM"},
      {"smiles": "C=C[C@]1(C)C=C2C(=O)[C@]3(O)OC(=O)[C@@]4(CCCC(C)(C)[C@H]34)[C@@]2(O)CC1", "IC50": "29.7 µM"},
      {"smiles": "Cc1ccccc1NC(=O)c1ccc(N2CCCCC2)nn1", "IC50": "> 50 µM (inactive)"},
      {"smiles": "O=S(=O)(c1ccc(F)cc1)N1CCCC1c1ccnc(Nc2cnccn2)n1", "note": "(centres undefined)", "IC50": "> 50 µM (inactive)"},
      {"smiles": "Cc1nc(NCc2ccccn2)c2cc(-c3ccccc3)sc2n1", "IC50": "24.7 µM"},
      {"smiles": "NS(=O)(=O)c1ccc(CNS(=O)(=O)c2ccc(-c3ccccn3)s2)cc1", "IC50": "23.2 µM"},
      {"smiles": "CCS(=O)(=O)c1ccccc1C(=O)Nc1ccc2sc(C)nc2c1", "IC50": "> 50 µM (inactive)"},
      {"smiles": "Cc1nnc(NCc2cccnc2)c2c1nnn2Cc1ccccc1Cl", "IC50": "34 µM"},
      {"smiles": "Cc1ccc(NC(=O)c2ccc(Nc3nnc(C)c4ccccc34)cc2)cc1", "IC50": "38.1 µM"},
      {"smiles": "CC(=O)c1ccc(N2C(=O)N(Cc3cccc([N+](=O)[O-])c3)c3ccccc3S2(=O)=O)cc1", "IC50": "> 50 µM (inactive)"},
      {"smiles": "Cc1cc(C)c(O)c(-c2cc(C(=O)Nc3ccccc3Cl)[nH]n2)c1", "IC50": "1.75 µM"},
      {"smiles": "Cc1ccc2c(=O)c3c([nH]c2c1C)CCN(CC(=O)NCc1ccc2c(c1)OCO2)C3", "IC50": "32.8 µM"},
      {"smiles": "COc1ccc2nc(SCC(=O)Nc3ccc(NC(C)=O)cc3)c(C)cc2c1", "IC50": "6.42 µM"},
      {"smiles": "c1ccc(-n2nnc(-c3noc(-c4cccnc4)n3)c2-c2ccncc2)cc1", "IC50": "27.9 µM"},
      {"smiles": "COc1ncccc1CN1CCn2c(Cn3cccn3)cnc2C1C", "note": "(centres undefined)", "IC50": "> 50 µM (inactive)"},
      {"smiles": "CCC(=O)OCc1cnc(C)c2oc(=O)c(-c3nc(-c4ccccc4)no3)cc12", "IC50": "> 50 µM (inactive)"},
      {"smiles": "O=C(CN1CCCc2ccccc21)Nc1ccc(N2CCOCC2)cc1", "IC50": "> 50 µM (inactive)"},
      {"smiles": "Cc1ccc(-n2c(=O)[nH]c3c(C(N)=O)nc(-c4cccnc4)nc32)cc1", "IC50": "4.36 µM"},
      {"smiles": "O=C(CC1C(=O)N(Cc2ccccc2)c2nc3ccccc3n21)NCCc1ccccc1", "note": "(centres undefined)", "IC50": "18.7 µM"},
      {"smiles": "NS(=O)(=O)c1ccc(NC(=O)Cn2cnc3cc([N+](=O)[O-])ccc3c2=O)cc1", "IC50": "18 µM"},
      {"smiles": "COc1cc(NC(=O)c2ccc3c(c2)OCO3)ccc1-c1cc2ccccc2oc1=O", "IC50": "0.678 µM"},
      {"smiles": "Cc1nc(SCC#N)c2oc3ccccc3c2n1", "IC50": "44.1 µM"},
      {"smiles": "Cc1nc(C(=O)NC2(O)C(=O)c3ccccc3C2=O)cs1", "IC50": "2.06 µM"},
      {"smiles": "Cc1c(-c2nsc(NC(=O)c3ccc(Cl)cc3)n2)nnn1-c1ccccc1F", "IC50": "0.674 µM"},
      {"smiles": "Cc1ccc2c(c1C)NC(=O)[C@]21[C@@H]2C(=O)N(c3cc(Cl)ccc3Cl)C(=O)[C@@H]2[C@@H]2CCCN21", "IC50": "> 50 µM (inactive)"},
      {"smiles": "O=C(Nc1ccc2c(c1)OCCO2)Nc1nnc(CC(=O)N2CCCCC2)s1", "IC50": "> 50 µM (inactive)"},
      {"smiles": "COc1cccc(-c2cc(=O)[nH]c(Nc3nc(C)c4ccccc4n3)n2)c1", "IC50": "43.1 µM"},
      {"smiles": "CCn1cc(-c2nc(-c3ccccn3)no2)c(=O)c2cc(F)ccc21", "IC50": "32.5 µM"},
      {"smiles": "Cn1nc(-c2nc(-c3ccccc3)no2)c2c1CCN(C(=O)C1CC1)C2", "IC50": "> 50 µM (inactive)"},
      {"smiles": "O=S(=O)(c1ccccc1Cl)N1CCN(c2ccc3nnc(-c4ccco4)n3n2)CC1", "IC50": "> 50 µM (inactive)"},
      {"smiles": "Cc1ccc(CN2CCCn3nc(C(=O)NCc4ccccc4C)cc3C2=O)cc1", "IC50": "40.1 µM"},
      {"smiles": "O=C(NCc1ccc(-c2nc3cnccc3o2)cc1)c1ccccc1F", "IC50": "18.8 µM"},
      {"smiles": "N#Cc1cc2c(nc1SCC(=O)NCc1ccccc1)CCCC2", "IC50": "> 50 µM (inactive)"},
      {"smiles": "Cc1ccc2c(c1)N=C(c1ccc([N+](=O)[O-])cc1)CO2", "IC50": "> 50 µM (inactive)"},
      {"smiles": "COc1cccc(-n2c(=O)[nH]c3c(C(N)=O)nc(-c4ccc(OCc5ccccc5)cc4)nc32)c1", "IC50": "> 50 µM (inactive)"},
      {"smiles": "Cc1ccc(/C=C/C(=O)Nc2ccc3c(c2)OCCO3)cc1", "IC50": "> 50 µM (inactive)"},
      {"smiles": "Cn1nccc1C(=O)N1CCCCC1c1ncc(Cc2ccc(Cl)cc2)o1", "note": "(centres undefined)", "IC50": "> 50 µM (inactive)"},
      {"smiles": "c1cnc(-c2n[nH]c(C3CCN(C4CCNC4)CC3)n2)cn1", "note": "(centres undefined)", "IC50": "> 50 µM (inactive)"},
      {"smiles": "Cc1nc(-c2cccc(NC(=O)c3ccccc3Cl)c2)no1", "IC50": "> 50 µM (inactive)"},
      {"smiles": "Cc1c(CC(=O)Nc2nn[nH]n2)c(=O)oc2cc3c(cc12)CCC1(CCCCC1)O3", "IC50": "> 50 µM (inactive)"}
    ]}
  ]
}
